The target of the assay is PI3Kδ (p110δ/p85α) (Homo sapiens (Human), UniProt O00329). As to the kind of experiment: PI3Kδ scintillation proximity assay (Example A3). It is filed as biochemical. Particulars: 20 μM ATP, 4 nM PI3Kδ, read-out: PI3Kδ SPA IC50. The procedure:
[γ-^33P]ATP (10 mCi/mL) was purchased from Perkin-Elmer (Waltham, Mass.). […] PI3Kδ (p110δ/p85α) was purchased from Millipore (Bedford, Mass.). ATP, MgCl2, DTT, EDTA, MOPS and CHAPS were purchased from Sigma-Aldrich (St. Louis, Mo.). Wheat Germ Agglutinin (WGA) YSi SPA Scintillation Beads was purchased from GE healthcare life sciences (Piscataway, N.J.).
The kinase reaction was conducted in polystyrene 384-well matrix white plate from Thermo Fisher Scientific in a final volume of 25 μL. Inhibitors were first diluted serially in DMSO and added to the plate wells before the addition of other reaction components. The final concentration of DMSO in the assay was 0.5%. The PI3K assays were carried out at room temperature in 20 mM MOPS, pH 6.7, 10 mM MgCl2, 5 mM DTT and CHAPS 0.03%. Reactions were initiated by the addition of ATP, the final reaction mixture consisted of 20 μM PIP2, 20 μM ATP, 0.2 μCi [γ-^33P] ATP, 4 nM PI3Kδ. […] 25 mM EDTA, 400 μM ATP. The final concentration of SPA beads was 1.0 mg/mL. After the plate sealing, plates were shaken overnight at room temperature and centrifuged at 1800 rpm for 10 minutes, the radioactivity of the product was determined by scintillation counting on Topcount (Perkin-Elmer). IC50 determination was performed by fitting the curve of percent control activity versus the log of the inhibitor concentration using the GraphPad Prism 3.0 software.

PI3Kδ (p110δ/p85α), sequence (O00329 whole entry, species assumed): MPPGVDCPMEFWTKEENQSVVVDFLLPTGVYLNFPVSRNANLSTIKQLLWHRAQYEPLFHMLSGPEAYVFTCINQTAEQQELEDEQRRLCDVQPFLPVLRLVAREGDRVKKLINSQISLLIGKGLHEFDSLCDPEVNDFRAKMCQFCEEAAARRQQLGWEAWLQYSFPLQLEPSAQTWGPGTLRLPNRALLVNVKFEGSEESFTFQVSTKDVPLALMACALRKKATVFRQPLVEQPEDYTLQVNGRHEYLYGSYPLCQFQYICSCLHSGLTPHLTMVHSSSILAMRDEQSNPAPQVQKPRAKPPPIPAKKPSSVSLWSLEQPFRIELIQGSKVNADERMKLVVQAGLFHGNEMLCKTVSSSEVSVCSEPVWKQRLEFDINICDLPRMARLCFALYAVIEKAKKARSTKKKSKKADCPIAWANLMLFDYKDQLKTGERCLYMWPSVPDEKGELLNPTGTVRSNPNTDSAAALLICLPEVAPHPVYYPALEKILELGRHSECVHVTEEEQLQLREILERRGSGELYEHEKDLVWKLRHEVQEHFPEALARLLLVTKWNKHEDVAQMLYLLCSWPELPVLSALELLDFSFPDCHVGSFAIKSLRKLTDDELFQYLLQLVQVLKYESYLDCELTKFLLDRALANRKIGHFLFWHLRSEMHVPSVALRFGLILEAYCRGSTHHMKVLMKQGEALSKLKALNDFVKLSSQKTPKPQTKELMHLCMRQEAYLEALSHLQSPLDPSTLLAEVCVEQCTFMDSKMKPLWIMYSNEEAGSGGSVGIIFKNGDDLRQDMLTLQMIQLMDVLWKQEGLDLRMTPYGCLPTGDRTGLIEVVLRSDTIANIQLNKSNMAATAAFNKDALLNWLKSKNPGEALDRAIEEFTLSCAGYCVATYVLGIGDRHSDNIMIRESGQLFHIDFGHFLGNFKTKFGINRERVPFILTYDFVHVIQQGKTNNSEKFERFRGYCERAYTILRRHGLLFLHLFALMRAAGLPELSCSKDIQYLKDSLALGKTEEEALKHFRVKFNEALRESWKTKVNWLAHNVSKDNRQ
PI3Kδ (p110δ/p85α), sequence (P27986 whole entry partner, species assumed): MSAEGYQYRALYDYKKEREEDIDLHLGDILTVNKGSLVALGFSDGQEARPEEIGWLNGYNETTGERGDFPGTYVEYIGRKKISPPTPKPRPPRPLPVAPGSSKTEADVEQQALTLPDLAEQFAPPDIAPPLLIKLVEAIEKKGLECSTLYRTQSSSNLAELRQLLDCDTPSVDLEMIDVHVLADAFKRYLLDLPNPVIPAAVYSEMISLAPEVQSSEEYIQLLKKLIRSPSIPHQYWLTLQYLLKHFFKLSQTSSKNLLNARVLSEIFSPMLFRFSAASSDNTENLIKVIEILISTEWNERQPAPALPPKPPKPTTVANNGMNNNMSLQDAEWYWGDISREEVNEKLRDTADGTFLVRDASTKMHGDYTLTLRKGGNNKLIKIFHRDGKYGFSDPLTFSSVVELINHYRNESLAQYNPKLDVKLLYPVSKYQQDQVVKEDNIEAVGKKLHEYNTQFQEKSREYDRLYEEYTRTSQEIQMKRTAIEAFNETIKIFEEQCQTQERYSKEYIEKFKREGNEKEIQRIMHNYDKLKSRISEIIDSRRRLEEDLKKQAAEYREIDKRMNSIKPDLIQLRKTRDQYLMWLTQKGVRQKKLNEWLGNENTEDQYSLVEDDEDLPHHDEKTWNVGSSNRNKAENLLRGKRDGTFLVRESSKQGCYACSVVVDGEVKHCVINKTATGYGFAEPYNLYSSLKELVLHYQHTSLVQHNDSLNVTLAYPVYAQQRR

The IC50 is the concentration that gives 50% inhibition. As for `COc1c(C(C)n2nc(C)c3c(N)ncnc32)cc(Cl)c(F)c1C1CN(C[C@H](C)O)C1` (single isomer, unassigned) [68 (2nd peak)], the IC50 was less than 10 nM.

Turning to `Cc1c(Cl)cc(C(C)n2nc(C)c3c(N)ncnc32)c(OCC(F)F)c1-c1ccc(C(=O)N(C)C)nc1` (centres unmarked) [Example 189, 5-(3-(1-(4-Amino-3-methyl-1H-pyrazolo[3,4-d]pyrimidin-1-yl)ethyl)-5-chloro-2-(2,2-difluoroethoxy)-6-methylphenyl)-N,N-dimethylpicolinamide bis(2,2,2-trifluoroacetate)], the concentration for half-maximal inhibition (IC50) is less than 10 nM.

On to `Cc1c(Cl)cc(C(C)n2nc(C)c3c(N)ncnc32)c(OCC2CC2)c1-c1ccc(C(=O)N(C)C)nc1` (centres unmarked) [Example 190, 5-(3-(1-(4-Amino-3-methyl-1H-pyrazolo[3,4-d]pyrimidin-1-yl)ethyl)-5-chloro-2-(cyclopropylmethoxy)-6-methylphenyl)-N,N-dimethylpicolinamide bis(2,2,2-trifluoroacetate)], for which the IC50 was less than 10 nM.

As for `COc1c(C(C)n2nc(C)c3c(N)ncnc32)cc(Cl)c(C)c1-c1cncc(C(=O)N(C)C2CC2)c1` (centres unmarked) [Example 174, 5-(3-(1-(4-Amino-3-methyl-1H-pyrazolo[3,4-d]pyrimidin-1-yl)ethyl)-5-chloro-2-methoxy-6-methylphenyl)-N-cyclopropyl-N-methylnicotinamide bis(2,2,2-trifluoroacetate)], the IC50 is less than 10 nM.

`CCOc1c(C(C)n2nc(C)c3c(N)ncnc32)cc(Cl)c(C)c1-c1ccc(C(=O)N(C)C)cn1` (centres unmarked) [Example 208, 6-{3-[1-(4-Amino-3-methyl-1H-pyrazolo[3,4-d]pyrimidin-1-yl)ethyl]-5-chloro-2-ethoxy-6-methylphenyl}-N,N-dimethylnicotinamide bis(trifluoroacetate)]: the IC50 was less than 10 nM.

Take `COc1c(C(C)n2nc(C)c3c(N)ncnc32)cc(Cl)c(C)c1-c1ccc(OCCO)nc1` (centres unmarked) [Example 188, 2-(5-(3-(1-(4-Amino-3-methyl-1H-pyrazolo[3,4-d]pyrimidin-1-yl)ethyl)-5-chloro-2-methoxy-6-methylphenyl)pyridin-2-yloxy)ethanol]: the IC50 is less than 10 nM.

As for `CCOc1c(C(C)n2nc(C)c3c(N)ncnc32)cc(Cl)c(C)c1C#N` (centres unmarked) [Example 211, 3-[1-(4-Amino-3-methyl-1H-pyrazolo[3,4-d]pyrimidin-1-yl)ethyl]-5-chloro-2-ethoxy-6-methylbenzonitrile], the 50% inhibitory concentration (IC50) is less than 10 nM.

As to `CCOc1c(C(C)n2nc(C)c3c(N)ncnc32)cc(Cl)c(C)c1-c1cnn(CC(N)=O)c1` (centres unmarked) [Example 203, 2-(4-(3-(1-(4-Amino-3-methyl-1H-pyrazolo[3,4-d]pyrimidin-1-yl)ethyl)-5-chloro-2-ethoxy-6-methylphenyl)-1H-pyrazol-1-yl)acetamide], the IC50 is less than 10 nM.

As to `COc1c(C(C)n2nc(C)c3c(N)ncnc32)cc(Cl)c(C)c1-c1ccc(NCCO)nc1` (centres unmarked) [Example 184, 2-[(5-{3-[1-(4-Amino-3-methyl-1H-pyrazolo[3,4-d]pyrimidin-1-yl)ethyl]-5-chloro-2-methoxy-6-methylphenyl}pyridin-2-yl)amino]ethanol], the IC50 was less than 10 nM.

As to `COc1c(C(C)n2nc(C(F)F)c3c(N)ncnc32)cc(Cl)c(C)c1-c1ccc(C(=O)N(C)C)nc1` (centres unmarked) [Example 191, 5-(3-{1-[4-Amino-3-(difluoromethyl)-1H-pyrazolo[3,4-d]pyrimidin-1-yl]ethyl}-5-chloro-2-methoxy-6-methylphenyl)-N,N-dimethylpyridine-2-carboxamide], the IC50 was less than 10 nM.

In the case of `COc1c(C(C)n2nc(C)c3c(N)ncnc32)cc(Cl)c(C)c1CC#N` (centres unmarked) [Example 194, {3-[1-(4-Amino-3-methyl-1H-pyrazolo[3,4-d]pyrimidin-1-yl)ethyl]-5-chloro-2-methoxy-6-methylphenyl}acetonitrile], the IC50 was less than 10 nM.
